Measured values as given in ChEMBL document CHEMBL1697781, “Assessment of the health effects of chemicals in humans: II. Construction of an adverse effects database for QSAR modeling” (Curr Drug Discov Technol, 2004).

Assays:
Settings in all cases: human; call rule not given here
[1] = system: Hepatotoxicity; experiment: FDA HLAED, serum glutamic pyruvic transaminase (SGPT) increase
[2] = system: Hepatotoxicity; experiment: FDA HLAED, liver enzyme composite activity
[3] = system: Hepatotoxicity; experiment: FDA HLAED, alkaline phosphatase increase
[4] = system: Hepatotoxicity; experiment: FDA HLAED, lactate dehydrogenase (LDH) increase
[5] = system: Hepatotoxicity; experiment: FDA HLAED, serum glutamic oxaloacetic transaminase (SGOT) increase
[6] = system: Hepatotoxicity; experiment: FDA HLAED, gamma-glutamyl transferase (GGT) increase
Throughout, for GGT Increase - Index Value: reference of the scale not given here.
Throughout, for LDH Increase - Index Value: reference of the scale not given here.

Nc1nc2c(ncn2COCCO)c(=O)[nH]1 [ACYCLOVIR]
SGPT Increase - Activity Score [1]: Inactive
SGPT Increase - Index Value [1]: 0.1
SGPT Increase - Number of Reports [1]: < 4
Composite Activity - Active [2]: 0
Composite Activity - Marginal [2]: 0
Composite Activity - Score [2]: Inactive
Alkaline Phosphatase Increase - Activity Score [3]: Inactive
Alkaline Phosphatase Increase - Index Value [3]: 0.9
Alkaline Phosphatase Increase - Number of Reports [3]: >= 4
LDH Increase - Activity Score [4]: Inactive
LDH Increase - Index Value [4]: 0.1
LDH Increase - Number of Reports [4]: < 4
SGOT Increase - Activity Score [5]: Inactive
SGOT Increase - Index Value [5]: 0.9
SGOT Increase - Number of Reports [5]: >= 4
GGT Increase - Activity Score [6]: Inactive
GGT Increase - Index Value [6]: 0
GGT Increase - Number of Reports [6]: < 4

Nc1ncnc2c1ncn2[C@@H]1O[C@H](CO)[C@@H](O)[C@H]1O [ADENOSINE]
SGPT Increase - Activity Score [1]: Inactive
SGPT Increase - Index Value [1]: 0
SGPT Increase - Number of Reports [1]: < 4
Composite Activity - Active [2]: 0
Composite Activity - Marginal [2]: 0
Composite Activity - Score [2]: Inactive
Alkaline Phosphatase Increase - Activity Score [3]: Inactive
Alkaline Phosphatase Increase - Index Value [3]: 0
Alkaline Phosphatase Increase - Number of Reports [3]: < 4
LDH Increase - Activity Score [4]: Inactive
LDH Increase - Index Value [4]: 0
LDH Increase - Number of Reports [4]: < 4
SGOT Increase - Activity Score [5]: Inactive
SGOT Increase - Index Value [5]: 0
SGOT Increase - Number of Reports [5]: < 4
GGT Increase - Activity Score [6]: Inactive
GGT Increase - Index Value [6]: 0
GGT Increase - Number of Reports [6]: < 4

CC(C)(C)NCC(O)c1ccc(O)c(CO)c1 (stereo not drawn) [ALBUTEROL]
SGPT Increase - Activity Score [1]: Inactive
SGPT Increase - Index Value [1]: 0
SGPT Increase - Number of Reports [1]: < 4
Composite Activity - Active ([2]; Liver): 0
Composite Activity - Marginal ([2]; Liver): 0
Composite Activity - Score ([2]; Liver): Inactive
Alkaline Phosphatase Increase - Activity Score [3]: Inactive
Alkaline Phosphatase Increase - Index Value [3]: 0
Alkaline Phosphatase Increase - Number of Reports [3]: < 4
LDH Increase - Activity Score [4]: Inactive
LDH Increase - Index Value [4]: 0
LDH Increase - Number of Reports [4]: < 4
SGOT Increase - Activity Score [5]: Inactive
SGOT Increase - Index Value [5]: 0.1
SGOT Increase - Number of Reports [5]: < 4
GGT Increase - Activity Score [6]: Inactive
GGT Increase - Index Value [6]: 0
GGT Increase - Number of Reports [6]: < 4

CCC(=O)OCC(=O)[C@@]1(OC(=O)CC)[C@H](C)C[C@H]2[C@H]3[C@H]([C@@H](O)C[C@@]21C)[C@@]1(C)C=CC(=O)C=C1C[C@H]3Cl [ALCLOMETASONE DIPROPIONATE]
SGPT Increase - Activity Score [1]: Inactive
SGPT Increase - Index Value [1]: 0
SGPT Increase - Number of Reports [1]: < 4
Composite Activity - Active [2]: 0
Composite Activity - Marginal [2]: 0
Composite Activity - Score [2]: Inactive
Alkaline Phosphatase Increase - Activity Score [3]: Inactive
Alkaline Phosphatase Increase - Index Value [3]: 0
Alkaline Phosphatase Increase - Number of Reports [3]: < 4
LDH Increase - Activity Score [4]: Inactive
LDH Increase - Index Value [4]: 0
LDH Increase - Number of Reports [4]: < 4
SGOT Increase - Activity Score [5]: Inactive
SGOT Increase - Index Value [5]: 0
SGOT Increase - Number of Reports [5]: < 4
GGT Increase - Activity Score [6]: Inactive
GGT Increase - Index Value [6]: 0
GGT Increase - Number of Reports [6]: < 4

C[C@@H]1C[C@H]2[C@H]3[C@H]([C@@H](O)C[C@]2(C)[C@@]1(O)C(=O)CO)[C@@]1(C)C=CC(=O)C=C1C[C@H]3Cl [ALCLOMETASONE]
SGPT Increase - Activity Score [1]: Inactive
SGPT Increase - Index Value [1]: 0
SGPT Increase - Number of Reports [1]: < 4
Composite Activity - Active [2]: 0
Composite Activity - Marginal [2]: 0
Composite Activity - Score [2]: Inactive
Alkaline Phosphatase Increase - Activity Score [3]: Inactive
Alkaline Phosphatase Increase - Index Value [3]: 0
Alkaline Phosphatase Increase - Number of Reports [3]: < 4
LDH Increase - Activity Score [4]: Inactive
LDH Increase - Index Value [4]: 0
LDH Increase - Number of Reports [4]: < 4
SGOT Increase - Activity Score [5]: Inactive
SGOT Increase - Index Value [5]: 0
SGOT Increase - Number of Reports [5]: < 4
GGT Increase - Activity Score [6]: Inactive
GGT Increase - Index Value [6]: 0
GGT Increase - Number of Reports [6]: < 4

NCCCC(O)(P(=O)(O)O)P(=O)(O)O [ALENDRONIC ACID]
SGPT Increase - Activity Score [1]: Inactive
SGPT Increase - Index Value [1]: 1.4
SGPT Increase - Number of Reports [1]: >= 4
Composite Activity - Active ([2]; Liver): 0
Composite Activity - Marginal ([2]; Liver): 0
Composite Activity - Score ([2]; Liver): Inactive
Alkaline Phosphatase Increase - Activity Score [3]: Inactive
Alkaline Phosphatase Increase - Index Value [3]: 2.5
Alkaline Phosphatase Increase - Number of Reports [3]: >= 4
LDH Increase - Activity Score [4]: Inactive
LDH Increase - Index Value [4]: 1.5
LDH Increase - Number of Reports [4]: >= 4
SGOT Increase - Activity Score [5]: Inactive
SGOT Increase - Index Value [5]: 1.4
SGOT Increase - Number of Reports [5]: >= 4
GGT Increase - Activity Score [6]: Inactive
GGT Increase - Index Value [6]: 0.8
GGT Increase - Number of Reports [6]: >= 4
